Measurements as given in patent publication US8044055B2, “2-phenyl-6-aminocarbonyl-pyrimidine derivatives and their use as P2Y12 receptor” (Actelion Pharmaceuticals Ltd., priority 2006, dated 2011).
Counter-ions that a name gives are not always drawn.

Target: T1, human P2Y12 receptor (Homo sapiens, UniProt Q9H244)
T1 construct: expressed in transfected cells; host or cells: Chinese Hamster Ovary (CHO) cells
Test: P2Y12 receptor binding assay
Settings: CHO cells with recombinant expression of the human P2Y12 receptor; tritium-labeled 2-methyl-S-ADP; 2 hours at room temperature
Description: Chinese Hamster Ovary (CHO) cells with recombinant expression of the human P2Y12 receptor were cultured in 24 well cell-culture plates. Cells were washed three times with binding buffer (50 mM Tris pH 7.4, 100 mM NaCl, 1 mM EDTA, 0.5% BSA). The cells were then incubated with 0.5 ml per well binding buffer containing tritium-labeled 2-methyl-thio-adenosine 5′-diphosphate (2-methyl-S-ADP) (between 100'000 and 300'000 dpm per well) and various concentrations of test compounds. After incubation at room temperature for 2 hours, cells were washed three times with binding buffer. Then, cells were solubilized by addition of 0.5 ml solubilization buffer (SDS, NaOH, EDTA). The content of each well was then transferred into beta-counter vials and 2.0 ml of Ultima Gold Scintillation liquid was added.

T1 sequence (Q9H244 whole entry): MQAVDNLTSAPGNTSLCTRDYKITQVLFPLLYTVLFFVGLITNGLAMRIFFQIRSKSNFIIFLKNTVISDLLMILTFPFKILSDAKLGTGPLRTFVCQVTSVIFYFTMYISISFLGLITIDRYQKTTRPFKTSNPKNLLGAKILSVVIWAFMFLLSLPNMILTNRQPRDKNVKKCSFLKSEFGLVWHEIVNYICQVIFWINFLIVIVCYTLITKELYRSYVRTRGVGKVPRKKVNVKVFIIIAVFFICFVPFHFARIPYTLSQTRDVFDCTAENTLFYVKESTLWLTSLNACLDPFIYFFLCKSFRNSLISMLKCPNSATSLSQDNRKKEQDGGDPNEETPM

| Compound | IC50 [nM] |
| --- | --- |
| CCOC(=O)N1CCN(C(=O)[C@H](CCC(=O)O)NC(=O)c2cc(OC3CCCN(C)C3)nc(-c3ccccc3)n2)CC1 (stereo partly drawn) [Example 6, 4-((S)-4-carboxy-2-{[6-(1-methyl-piperidin-3-yloxy)-2-phenyl-pyrimidine-4-carbonyl]-amino}-butyryl)-piperazine-1-carboxylic acid ethyl ester trifluoroacetate salt] | 238 |
| CCCCOC(=O)N1CCN(C(=O)[C@H](CCC(=O)OC(C)(C)C)NC(=O)c2cc(O[C@@H]3CCOC3)nc(-c3ccccc3)n2)CC1 [Example 36, 4-[(S)-4-tert-butoxycarbonyl-2-({2-phenyl-6-[(R)-(tetrahydro-furan-3-yl)oxy]-pyrimidine-4-carbonyl}-amino)-butyryl]-piperazine-1-carboxylic acid butyl ester] | 448 |
| CCCCOC(=O)N1CCN(C(=O)[C@H](CCC(=O)OC(C)(C)C)NC(=O)c2cc(OC3CCNCC3)nc(-c3ccccc3)n2)CC1 [Example 38, 4-((S)-4-tert-butoxycarbonyl-2-{[2-phenyl-6-(piperidin-4-yloxy)-pyrimidine-4-carbonyl]-amino}-butyryl)-piperazine-1-carboxylic acid butyl ester] | 13000 |

Compounds with a lower IC50, results first:

| IC50 [nM] | Compound |
| --- | --- |
| 126 | CCOC(=O)N1CCN(C(=O)[C@H](CCC(=O)O)NC(=O)c2cc(OC3CCOC3)nc(-c3ccccc3)n2)C(C)C1 (stereo partly drawn) [Example 10, ((S)-4-carboxy-2-{[2-phenyl-6-(tetrahydro-furan-3-yloxy)-pyrimidine-4-carbonyl]-amino}-butyryl)-3-methyl-piperazine-1-carboxylic acid ethyl ester] |
| 108 | CCOC(=O)N1CCN(C(=O)[C@H](CCC(=O)O)NC(=O)c2cc(OCCOCCOC)nc(-c3ccccc3)n2)CC1 [Example 1, 4-[(S)-4-carboxy-2-({6-[2-(2-methoxy-ethoxy)-ethoxy]-2-phenyl-pyrimidine-4-carbonyl}-amino)-butyryl]-piperazine-1-carboxylic acid ethyl ester] |
| 94 | CCOC(=O)N1CCN(C(=O)[C@H](CCc2nnn[nH]2)NC(=O)c2cc(OC3CCOC3)nc(-c3ccccc3)n2)CC1 (stereo partly drawn) [Example 17, 4-[(S)-2-{[2-phenyl-6-(tetrahydro-furan-3-yloxy)-pyrimidine-4-carbonyl]-amino}-4-(1H-tetrazol-5-yl)-butyryl]-piperazine-1-carboxylic acid ethyl ester] |
| 71 | CCCCOC(=O)N1CCN(C(=O)[C@H](CCC(=O)O)NC(=O)c2cc(OC3CCNCC3)nc(-c3ccccc3)n2)CC1 [Example 37, 4-((S)-4-carboxy-2-{[2-phenyl-6-(piperidin-4-yloxy)-pyrimidine-4-carbonyl]-amino}-butyryl)-piperazine-1-carboxylic acid butyl ester] |
